Results taken from article PMC6277767, “Broad and Region-Specific Impacts of the Synthetic Cannabinoid CP 55,940 in Adolescent and Adult Female Mouse Brains” (Frontiers in Molecular Neuroscience, 2018).

Test system: CD1 female mouse brain lipidome
Assay: Brain-region lipid levels (HPLC/MS/MS lipidomics) 2 h after single i.p. 3 mg/kg CP 55,940 vs vehicle
Type: in vivo
Description: The Bloomington Institutional Animal Care and Use Committee of Indiana University reviewed and approved the animal procedures. Female mice from the CD1 strain were utilized to match our study examining THC’s effects on the brain lipidome ([Leishman et al., 2018]). Mice were given a single i.p. injection of either 3 mg/kg CP or 1:1:18 cremophor:ethanol:saline vehicle (please refer to the section “3 mg/kg CP Is Relevant for Synthetic Cannabinoid Abuse and Has Stronger Effects on the Female Mouse Brain Lipidome During Adolescence” for a justification of dose and use of female mice). Three different age groups were given injections: PND 35 and PND 50 adolescents, and adult mice (PND 113). At least eight mice in each age group received CP and at least eight received vehicle. Matching the THC study time course ([Leishman et al., 2018]), mice were sacrificed via rapid decapitation 2 h after injection. Brains were immediately removed and flash-frozen in liquid nitrogen, and then stored at -80°C until dissections were performed. Brains were dissected on an ice-cold dissection plate into the following regions: STR, HIPP, CER, THAL, CTX, HYP, MID, and STEM. These abbreviations for these brain areas will be used exclusively when discussing the results generated by these specific dissections. Each dissected area was immediately placed in liquid nitrogen and then stored at -80°C until used for lipid extraction.
Tissue extracts were performed as previously described ([Bradshaw et al., 2006]; [Stuart et al., 2013]; [Raboune et al., 2014]; [Leishman et al., 2016a],[b], [2017], [2018]). First, samples were shock frozen in liquid nitrogen, weighed, and transferred to a centrifuge tube. The mass of the largest sample was multiplied by 50 to determine how many milliliters of HPLC-grade methanol (Fisher, Fair Lawn, NJ, United States) to add. Then, samples were spiked with 500 pmol deuterium-labeled NAGly (d8NAGly; Cayman Chemical, Ann Arbor, MI, United States). Samples were placed on ice in darkness for 2 h then individually homogenized and centrifuged at 19,000 × g for 20 min at 20°C. Supernatants were diluted with HPLC water (purified in house) to make a solution of 75% water, 25% supernatant. Lipids were partially purified on C18 solid phase extraction columns (Agilent, Palo Alto, CA, United States). A series of four elutions with 1.5 mL of 60%, 75%, 85%, and 100% methanol were collected ([Stuart et al., 2013]; [Leishman et al., 2016a],[b], [2018]).
As previously described ([Bradshaw et al., 2006]; [Tan et al., 2006]; [Smoum et al., 2010]; [Stuart et al., 2013]; [Tortoriello et al., 2013]; [Raboune et al., 2014]; [Leishman et al., 2016a],[b], [2017], [2018]), samples were analyzed using an Applied Biosystems API 3000 triple quadrupole mass spectrometer with electrospray ionization (Foster City, CA, United States). Using an Agilent XDB-C18 reversed phase analytical column and optimized mobile phase gradients, 20 μL from each elution were chromatographed. Two Shimadzu 10ADvp pumps (Columbia, MD, United States) provided the pressure for gradient elution. Mobile phase A: 20% methanol, 80% water (v/v) and 1 mM ammonium acetate (Sigma, St. Louis, MO, United States). Mobile phase B: 100% methanol, 1 mM ammonium acetate. Every method run began with 0% mobile phase B, reached 100% mobile phase B flowing at 0.2 mL/min, and gradually returned to 0% mobile phase B.
This screening library will be referred to as the lipidome when discussing data from this study. HPLC/MS/MS data were analyzed using Analyst software (Applied Biosystems) ([Bradshaw et al., 2006]; [Tan et al., 2006]; [Stuart et al., 2013]; [Tortoriello et al., 2013]; [Raboune et al., 2014]; [Leishman et al., 2016a],[b], [2017], [2018]). Chromatograms (Supplementary Figure 3) were generated by determining the retention time of analytes from the analytical column with a [M-1] or [M+1] parent peak and a fragmentation peak corresponding to the programmed values. […]

[1] = striatum, adult, 3 mg/kg CP 55,940, one-way ANOVA p .007
[2] = striatum, adult, 3 mg/kg CP 55,940, one-way ANOVA p .015
[3] = striatum, adult, 3 mg/kg CP 55,940, one-way ANOVA p .017
[4] = striatum, adult, 3 mg/kg CP 55,940, one-way ANOVA p .019
[5] = striatum, adult, 3 mg/kg CP 55,940, one-way ANOVA p .043
[6] = striatum, adult, 3 mg/kg CP 55,940, one-way ANOVA p .071
[7] = striatum, adult, 3 mg/kg CP 55,940, one-way ANOVA p .075
[8] = striatum, PND 35, 3mg/kg CP 55,940
[9] = thalamus, PND 50, 3 mg/kg CP 55,940

For `CCCCCCC(C)(C)c1ccc([C@@H]2C[C@H](O)CC[C@H]2CCCO)c(O)c1` [CP 55,940], the “N-docosahexaenoyl ethanolamine, Direction (relative to Veh)” value [1] was “↓”, the “N-docosahexaenoyl ethanolamine, Magnitude (x Veh level)” value [1] was 0.75 x Veh level and the “N-linoleoyl ethanolamine, Direction (relative to Veh)” value [2] was “↓”. The “N-linoleoyl ethanolamine, Magnitude (x Veh level)” value [2] was 0.68 x Veh level, the “N-arachidonoyl ethanolamine, Direction (relative to Veh)” value [3] was “↓” and the “N-arachidonoyl ethanolamine, Magnitude (x Veh level)” value [3] was 0.66 x Veh level. For the same compound, the “Arachidonic acid, Direction (relative to Veh)” value [4] was “↓”, the “Arachidonic acid, Magnitude (x Veh level)” value [4] was 0.87 x Veh level and the “N-oleoyl ethanolamine, Direction (relative to Veh)” value [5] was “↓”. The “N-oleoyl ethanolamine, Magnitude (x Veh level)” value [5] was 0.65 x Veh level, the “N-oleoyl leucine Direction (relative to Veh)” value [5] was “↑” and the “N-oleoyl leucine Magnitude (x Veh level)” value [5] was 1.20 x Veh level. For the same compound, the “2-arachidonoyl glycerol, Direction (relative to Veh)” value [6] was “↓”, the “2-arachidonoyl glycerol, Magnitude (x Veh level)” value [6] was 0.78 x Veh level and the “N-palmitoyl serine, Direction (relative to Veh)” value [7] was “↓”. For the same compound, the “N-palmitoyl serine, Magnitude (x Veh level)” value [7] was 0.79 x Veh level, the “2-arachidonoyl glycerol: Direction (relative to Veh)” value [8] was “↓” and the “2-arachidonoyl glycerol: Magnitude (x Veh level)” value [8] was 0.70 x Veh level. For the same compound, the “2-linoleoyl glycerol: Direction (relative to Veh)” value [8] was “↓”, the “2-linoleoyl glycerol: Magnitude (x Veh level)” value [8] was 0.57 x Veh level and the “2-oleoyl glycerol: Direction (relative to Veh)” value [8] was “↓”. The “2-oleoyl glycerol: Magnitude (x Veh level)” value [8] was 0.86 x Veh level, the “N-arachidonoyl GABA: Direction (relative to Veh)” value [8] was “↓” and the “N-arachidonoyl GABA: Magnitude (x Veh level)” value [8] was 0.66 x Veh level. The “N-arachidonoyl alanine: Direction (relative to Veh)” value [8] was “↓”, the “N-arachidonoyl alanine: Magnitude (x Veh level)” value [8] was 0.77 x Veh level and the “N-arachidonoyl glycine: Direction (relative to Veh)” value [8] was “↓”. The “N-arachidonoyl glycine: Magnitude (x Veh level)” value [8] was 0.87 x Veh level, the “N-arachidonoyl phenylalanine: Direction (relative to Veh)” value [8] was “↓” and the “N-arachidonoyl phenylalanine: Magnitude (x Veh level)” value [8] was 0.83 x Veh level. For the same compound, the “N-arachidonoyl serine: Direction (relative to Veh)” value [8] was “↓”, the “N-arachidonoyl serine: Magnitude (x Veh level)” value [8] was 0.64 x Veh level and the “N-arachidonoyl taurine: Direction (relative to Veh)” value [8] was “↓”. The “N-arachidonoyl taurine: Magnitude (x Veh level)” value [8] was 0.91 x Veh level, the “N-arachidonoyl tyrosine: Direction (relative to Veh)” value [8] was “↓” and the “N-arachidonoyl tyrosine: Magnitude (x Veh level)” value [8] was 0.77 x Veh level. The “N-docosahexaenoyl GABA: Direction (relative to Veh)” value [8] was “↓”, the “N-docosahexaenoyl GABA: Magnitude (x Veh level)” value [8] was 0.68 x Veh level and the “N-docosahexaenoyl alanine: Direction (relative to Veh)” value [8] was “↓”. For the same compound, the “N-docosahexaenoyl alanine: Magnitude (x Veh level)” value [8] was 0.72 x Veh level, the “N-docosahexaenoyl ethanolamine: Direction (relative to Veh)” value [8] was “↓” and the “N-docosahexaenoyl ethanolamine: Magnitude (x Veh level)” value [8] was 0.74 x Veh level. For the same compound, the “N-docosahexaenoyl leucine: Direction (relative to Veh)” value [8] was “↑”, the “N-docosahexaenoyl leucine: Magnitude (x Veh level)” value [8] was 1.46 x Veh level and the “N-docosahexaenoyl serine: Direction (relative to Veh)” value [8] was “↓”. The “N-docosahexaenoyl serine: Magnitude (x Veh level)” value [8] was 0.68 x Veh level, the “N-oleoyl GABA: Direction (relative to Veh)” value [8] was “↓” and the “N-oleoyl GABA: Magnitude (x Veh level)” value [8] was 0.76 x Veh level. For the same compound, the “N-oleoyl alanine: Direction (relative to Veh)” value [8] was “↓”, the “N-oleoyl alanine: Magnitude (x Veh level)” value [8] was 0.89 x Veh level and the “N-oleoyl ethanolamine: Direction (relative to Veh)” value [8] was “↓”. The “N-oleoyl ethanolamine: Magnitude (x Veh level)” value [8] was 0.60 x Veh level, the “N-oleoyl glycine: Direction (relative to Veh)” value [8] was “↓” and the “N-oleoyl glycine: Magnitude (x Veh level)” value [8] was 0.88 x Veh level. For the same compound, the “N-palmitoyl ethanolamine: Direction (relative to Veh)” value [8] was “↓”, the “N-palmitoyl ethanolamine: Magnitude (x Veh level)” value [8] was 0.72 x Veh level and the “N-palmitoyl leucine: Direction (relative to Veh)” value [8] was “↑”. The “N-palmitoyl leucine: Magnitude (x Veh level)” value [8] was 1.17 x Veh level, the “N-palmitoyl valine: Direction (relative to Veh)” value [8] was “↑” and the “N-palmitoyl valine: Magnitude (x Veh level)” value [8] was 1.68 x Veh level. The “N-stearoyl alanine: Direction (relative to Veh)” value [8] was “↓”, the “N-stearoyl alanine: Magnitude (x Veh level)” value [8] was 0.90 x Veh level and the “N-stearoyl leucine: Direction (relative to Veh)” value [8] was “↓”. The “N-stearoyl leucine: Magnitude (x Veh level)” value [8] was 0.81 x Veh level, the “N-stearoyl serine: Direction (relative to Veh)” value [8] was “↓” and the “N-stearoyl serine: Magnitude (x Veh level)” value [8] was 0.86 x Veh level. For the same compound, the “N-stearoyl valine: Direction (relative to Veh)” value [8] was “↑”, the “N-stearoyl valine: Magnitude (x Veh level)” value [8] was 1.43 x Veh level and the “PGE2: Direction (relative to Veh)” value [8] was “↑”. For the same compound, the “PGE2: Magnitude (x Veh level)” value [8] was 1.25 x Veh level, the “PGF2α: Direction (relative to Veh)” value [8] was “↑” and the “PGF2α: Magnitude (x Veh level)” value [8] was 1.30 x Veh level. For the same compound, the “2-arachidonoyl glycerol: Direction (relative to Veh)” value [9] was “↓”, the “2-arachidonoyl glycerol: Magnitude (x Veh level)” value [9] was 0.84 x Veh level and the “2-linoleoyl glycerol: Direction (relative to Veh)” value [9] was “↓”. The “2-linoleoyl glycerol: Magnitude (x Veh level)” value [9] was 0.68 x Veh level, the “2-oleoyl glycerol: Direction (relative to Veh)” value [9] was “↓” and the “2-oleoyl glycerol: Magnitude (x Veh level)” value [9] was 0.78 x Veh level. For the same compound, the “6-ketoPGF1α: Direction (relative to Veh)” value [9] was “↑”, the “6-ketoPGF1α: Magnitude (x Veh level)” value [9] was 1.52 x Veh level and the “Arachidonic acid: Direction (relative to Veh)” value [9] was “↓”. For the same compound, the “Arachidonic acid: Magnitude (x Veh level)” value [9] was 0.77 x Veh level, the “Linoleic acid: Direction (relative to Veh)” value [9] was “↓” and the “Linoleic acid: Magnitude (x Veh level)” value [9] was 0.73 x Veh level. For the same compound, the “N-arachidonoyl GABA: Direction (relative to Veh)” value [9] was “↓”, the “N-arachidonoyl GABA: Magnitude (x Veh level)” value [9] was 0.68 x Veh level and the “N-arachidonoyl ethanolamine: Direction (relative to Veh)” value [9] was “↓”. For the same compound, the “N-arachidonoyl ethanolamine: Magnitude (x Veh level)” value [9] was 0.85 x Veh level, the “N-arachidonoyl glycine: Direction (relative to Veh)” value [9] was “↓” and the “N-arachidonoyl glycine: Magnitude (x Veh level)” value [9] was 0.63 x Veh level. The “N-arachidonoyl phenylalanine: Direction (relative to Veh)” value [9] was “↓”, the “N-arachidonoyl phenylalanine: Magnitude (x Veh level)” value [9] was 0.51 x Veh level and the “N-arachidonoyl taurine: Direction (relative to Veh)” value [9] was “↓”. For the same compound, the “N-arachidonoyl taurine: Magnitude (x Veh level)” value [9] was 0.88 x Veh level, the “N-arachidonoyl tyrosine: Direction (relative to Veh)” value [9] was “↓” and the “N-arachidonoyl tyrosine: Magnitude (x Veh level)” value [9] was 0.78 x Veh level. For the same compound, the “N-docosahexaenoyl GABA: Direction (relative to Veh)” value [9] was “↓”, the “N-docosahexaenoyl GABA: Magnitude (x Veh level)” value [9] was 0.70 x Veh level and the “N-linoleoyl GABA: Direction (relative to Veh)” value [9] was “↓”. The “N-linoleoyl GABA: Magnitude (x Veh level)” value [9] was 0.57 x Veh level, the “N-palmitoyl leucine: Direction (relative to Veh)” value [9] was “↑” and the “N-palmitoyl leucine: Magnitude (x Veh level)” value [9] was 1.27 x Veh level.
